Results reported in ChEMBL document CHEMBL1128274, “6-Aminoquinolones: a new class of quinolone antibacterials?” (1995).
≈ marks a conversion by molar mass, not a printed value.

Experiments:
Format in all cases: functional
[1] = test system: Staphylococcus aureus; assay: Tested in vitro for inhibitory activity against gram positive bacteria Staphylococcus aureus ATCC 6538 strain
[2] = test system: Pseudomonas aeruginosa; assay: Tested in vitro for inhibitory activity against gram negative bacteria Pseudomonas aeruginosa ATCC 9027 strain
[3] = test system: Staphylococcus epidermidis; assay: Tested in vitro for inhibitory activity against gram positive bacteria Staphylococcus epidermidis HCF berset C strain
[4] = test system: Escherichia coli; assay: Tested in vitro for inhibitory activity against gram negative bacteria Escherichia coli ISF 432 cell lines at 25 ug/mL
[5] = test system: Acinetobacter calcoaceticus; assay: Tested in vitro for inhibitory activity against gram negative bacteria Acinetobacter calcoaceticus OSMPV 113 strain.
[6] = test system: Escherichia coli; assay: Tested in vitro for inhibitory activity against gram negative bacteria Escherichia coli ATCC 8739 cell lines at 25 ug/mL
[7] = test system: Enterococcus faecalis; assay: Tested in vitro for inhibitory activity against gram positive bacteria Streptococcus faecalis LEP Br strain
[8] = test system: Shigella; assay: Tested in vitro for inhibitory activity against gram negative bacteria Shigella enteritidis
[9] = test system: Enterobacter cloacae; assay: Tested in vitro for inhibitory activity against gram negative bacteria Enterobacter cloacae OMNFI 174 strain.
[10] = test system: Providencia stuartii; assay: Tested in vitro for inhibitory activity against gram negative bacteria Providencia stuartii CNUR 5 strain
[11] = test system: Klebsiella pneumoniae; assay: Tested in vitro for inhibitory activity against gram negative bacteria Klebsiella pneumoniae ATCC 10031 strain
[12] = test system: Staphylococcus epidermidis; assay: Tested in vitro for inhibitory activity against gram positive bacteria Staphylococcus epidermidis CPHL A2 strain
[13] = test system: Staphylococcus aureus; assay: Tested in vitro for inhibitory activity against gram positive bacteria Staphylococcus aureus MPR 5 strain
[14] = test system: Escherichia coli; assay: Tested in vitro for inhibitory activity against gram negative bacteria Escherichia coli ATCC 8739 strain
[15] = test system: Escherichia coli; assay: Tested in vitro for inhibitory activity against gram negative bacteria Escherichia coli ISF 432 strain.

Compound	MIC [1] [µg/mL]	MIC [2] [µg/mL]	MIC [3] [µg/mL]	MIC [4] [µg/mL]	MIC [5] [µg/mL]	MIC [6] [µg/mL]	MIC [7] [µg/mL]	MIC [8] [µg/mL]	MIC [9] [µg/mL]	MIC [10] [µg/mL]	MIC [11] [µg/mL]	MIC [12] [µg/mL]	MIC [13] [µg/mL]	MIC [14] [µg/mL]	MIC [15] [µg/mL]
CN1CCN(c2nc3c(cc2N)c(=O)c(C(=O)O)cn3C2CC2)CC1	4 (≈ 11.6 µM)	2 (≈ 5.82 µM)	4 (≈ 11.6 µM)	0.03 (≈ 0.0874 µM)	4 (≈ 11.6 µM)	0.12 (≈ 0.349 µM)	32 (≈ 93.2 µM)	0.12 (≈ 0.349 µM)	0.12 (≈ 0.349 µM)	2 (≈ 5.82 µM)	0.03 (≈ 0.0874 µM)	4 (≈ 11.6 µM)	4 (≈ 11.6 µM)	–	–
O=C(O)c1cn(C2CC2)c2cc(N3CCNCC3)c(F)cc2c1=O [CIPROFLOXACIN]	0.12 (≈ 0.362 µM)	0.06 (≈ 0.181 µM)	0.12 (≈ 0.362 µM)	–	0.06 (≈ 0.181 µM)	–	0.5 (≈ 1.51 µM)	0.03 (≈ 0.0905 µM)	–	0.06 (≈ 0.181 µM)	0.03 (≈ 0.0905 µM)	0.06 (≈ 0.181 µM)	0.12 (≈ 0.362 µM)	–	–
CC(C)(C)n1cc(C(=O)O)c(=O)c2cc(N)c(N3CCN(c4ccccn4)CC3)cc21	1 (≈ 2.37 µM)	128 (≈ 304 µM)	2 (≈ 4.74 µM)	–	1 (≈ 2.37 µM)	–	16 (≈ 38 µM)	64 (≈ 152 µM)	64 (≈ 152 µM)	128 (≈ 304 µM)	0.25 (≈ 0.593 µM)	1 (≈ 2.37 µM)	1 (≈ 2.37 µM)	0.5 (≈ 1.19 µM)	0.5 (≈ 1.19 µM)
NCCSc1cc2c(cc1N)c(=O)c(C(=O)O)cn2C1CC1	128 (≈ 401 µM)	128 (≈ 401 µM)	128 (≈ 401 µM)	–	128 (≈ 401 µM)	–	128 (≈ 401 µM)	128 (≈ 401 µM)	128 (≈ 401 µM)	128 (≈ 401 µM)	2 (≈ 6.26 µM)	128 (≈ 401 µM)	128 (≈ 401 µM)	1 (≈ 3.13 µM)	1 (≈ 3.13 µM)
CC1CN(c2cc3c(cc2N)c(=O)c(C(=O)O)cn3C2CC2)CCN1 (stereo not drawn)	16 (≈ 46.7 µM)	2 (≈ 5.84 µM)	4 (≈ 11.7 µM)	–	16 (≈ 46.7 µM)	–	32 (≈ 93.5 µM)	0.25 (≈ 0.73 µM)	0.25 (≈ 0.73 µM)	16 (≈ 46.7 µM)	0.03 (≈ 0.0876 µM)	4 (≈ 11.7 µM)	16 (≈ 46.7 µM)	0.03 (≈ 0.0876 µM)	0.03 (≈ 0.0876 µM)
Nc1cc2c(=O)c(C(=O)O)cn(-c3ccc(F)cc3)c2cc1N1CCSCC1	0.5 (≈ 1.25 µM)	128 (≈ 320 µM)	4 (≈ 10 µM)	–	4 (≈ 10 µM)	–	128 (≈ 320 µM)	4 (≈ 10 µM)	4 (≈ 10 µM)	4 (≈ 10 µM)	0.03 (≈ 0.0751 µM)	4 (≈ 10 µM)	1 (≈ 2.5 µM)	0.06 (≈ 0.15 µM)	0.03 (≈ 0.0751 µM)

More lines, in order of falling MIC [1], values ahead:

MIC [1] [µg/mL]	MIC [2] [µg/mL]	MIC [3] [µg/mL]	MIC [4] [µg/mL]	MIC [5] [µg/mL]	MIC [6] [µg/mL]	MIC [7] [µg/mL]	MIC [8] [µg/mL]	MIC [9] [µg/mL]	MIC [10] [µg/mL]	MIC [11] [µg/mL]	MIC [12] [µg/mL]	MIC [13] [µg/mL]	MIC [14] [µg/mL]	MIC [15] [µg/mL]	Compound
128 (≈ 346 µM)	128 (≈ 346 µM)	128 (≈ 346 µM)	–	128 (≈ 346 µM)	–	128 (≈ 346 µM)	128 (≈ 346 µM)	128 (≈ 346 µM)	128 (≈ 346 µM)	4 (≈ 10.8 µM)	128 (≈ 346 µM)	128 (≈ 346 µM)	4 (≈ 10.8 µM)	4 (≈ 10.8 µM)	CC(=O)NC1CCN(c2cc3c(cc2N)c(=O)c(C(=O)O)cn3C2CC2)C1 (stereo not drawn)
64 (≈ 195 µM)	2 (≈ 6.09 µM)	16 (≈ 48.7 µM)	–	16 (≈ 48.7 µM)	–	128 (≈ 390 µM)	0.5 (≈ 1.52 µM)	0.25 (≈ 0.761 µM)	32 (≈ 97.5 µM)	0.25 (≈ 0.761 µM)	16 (≈ 48.7 µM)	64 (≈ 195 µM)	0.25 (≈ 0.761 µM)	0.03 (≈ 0.0914 µM)	Nc1cc2c(=O)c(C(=O)O)cn(C3CC3)c2cc1N1CCNCC1
64 (≈ 193 µM)	128 (≈ 386 µM)	64 (≈ 193 µM)	–	128 (≈ 386 µM)	–	128 (≈ 386 µM)	32 (≈ 96.6 µM)	16 (≈ 48.3 µM)	128 (≈ 386 µM)	0.5 (≈ 1.51 µM)	64 (≈ 193 µM)	128 (≈ 386 µM)	0.5 (≈ 1.51 µM)	1 (≈ 3.02 µM)	Nc1cc2c(=O)c(C(=O)O)cn(C3CC3)c2cc1N1CCSC1
8 (≈ 20.2 µM)	8 (≈ 20.2 µM)	8 (≈ 20.2 µM)	–	16 (≈ 40.4 µM)	–	64 (≈ 161 µM)	4 (≈ 10.1 µM)	4 (≈ 10.1 µM)	4 (≈ 10.1 µM)	0.12 (≈ 0.303 µM)	8 (≈ 20.2 µM)	4 (≈ 10.1 µM)	0.12 (≈ 0.303 µM)	0.12 (≈ 0.303 µM)	CN1CCN(c2cc3c(cc2N)c(=O)c(C(=O)O)cn3-c2ccc(F)cc2)CC1
4 (≈ 12.1 µM)	64 (≈ 194 µM)	8 (≈ 24.3 µM)	–	16 (≈ 48.6 µM)	–	128 (≈ 389 µM)	32 (≈ 97.1 µM)	16 (≈ 48.6 µM)	64 (≈ 194 µM)	0.12 (≈ 0.364 µM)	8 (≈ 24.3 µM)	8 (≈ 24.3 µM)	0.12 (≈ 0.364 µM)	0.12 (≈ 0.364 µM)	CC(C)(C)n1cc(C(=O)O)c(=O)c2cc(N)c(N3CCCC3)cc21
0.03 (≈ 0.0819 µM)	1 (≈ 2.73 µM)	0.06 (≈ 0.164 µM)	–	1 (≈ 2.73 µM)	–	0.5 (≈ 1.36 µM)	0.25 (≈ 0.682 µM)	0.25 (≈ 0.682 µM)	0.12 (≈ 0.328 µM)	0.008 (≈ 0.0218 µM)	0.06 (≈ 0.164 µM)	0.03 (≈ 0.0819 µM)	0.01 (≈ 0.0273 µM)	0.008 (≈ 0.0218 µM)	O=C(O)c1cn(C2CC2)c2c(F)c(N3CCSCC3)c(F)cc2c1=O
